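Following 48 hours of exposure in 96-well plates, responses at five concentrations were used to interpolate endpoints linearly. GI50 is the concentration that inhibits growth by half.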 Activity calls are given as the source filed them. No stated cut-off is given here; in the data, active = GI50 up to about 1.1 µM and inactive = higher. Where a SMILES comes first, the peptide text is derived from it. [ ]: non-standard residue; d: D form. The star is where a group is joined. mTyr = N[CH](Cc1cccc(O)c1)C(=O)O; Cbz = O=C(OCc1ccccc1)*; OBn = c1ccc(CO*)cc1
What was measured:
Test in all cases: NCI anticancer screen, dose series, 48 h
UACC-62 = tested on: UACC-62
SF-295 = tested on: SF-295
HCT-116 = tested on: HCT-116
HOP-62 = tested on: HOP-62
LOX IMVI = tested on: LOX IMVI
SN12C = tested on: SN12C
OVCAR-4 = tested on: OVCAR-4
MDA-MB-231 = tested on: MDA-MB-231
SR = tested on: SR
RXF 393 = tested on: RXF 393
KM12 = tested on: KM12
UACC-257 = tested on: UACC-257
IGROV-1 = tested on: IGROV-1
SF-268 = tested on: SF-268
HT-29 = tested on: HT-29
SK-OV-3 = tested on: SK-OV-3
HCC 2998 = tested on: HCC 2998
HL-60 = tested on: HL-60
SNB-19 = tested on: SNB-19
NCI-H460 = tested on: NCI-H460

Compound	GI50 (UACC-62)	GI50 (SF-295)	GI50 (HCT-116)	GI50 (HOP-62)	GI50 (LOX IMVI)	GI50 (SN12C)	GI50 (OVCAR-4)	GI50 (MDA-MB-231)	GI50 (SR)	GI50 (RXF 393)	GI50 (KM12)	GI50 (UACC-257)	GI50 (IGROV-1)	GI50 (SF-268)	GI50 (HT-29)	GI50 (SK-OV-3)	GI50 (HCC 2998)	GI50 (HL-60)	GI50 (SNB-19)	GI50 (NCI-H460)
CCSCCCC(=O)O	> 100 µM (inactive)	> 100 µM (inactive)	> 100 µM (inactive)	> 100 µM (inactive)	> 100 µM (inactive)	> 100 µM (inactive)	> 100 µM (inactive)	> 100 µM (inactive)	> 100 µM (inactive)	> 100 µM (inactive)	> 100 µM (inactive)	> 100 µM (inactive)	> 100 µM (inactive)	> 100 µM (inactive)	> 100 µM (inactive)	> 100 µM (inactive)	> 100 µM (inactive)	> 100 µM (inactive)	> 100 µM (inactive)	
CN1CCN(CCCN)CC1	> 100 µM (inactive)	> 100 µM (inactive)	> 100 µM (inactive)	> 100 µM (inactive)	> 100 µM (inactive)	> 100 µM (inactive)	> 100 µM (inactive)	> 100 µM (inactive)	> 100 µM (inactive)	> 100 µM (inactive)	> 100 µM (inactive)	> 100 µM (inactive)	> 100 µM (inactive)	> 100 µM (inactive)	> 100 µM (inactive)	> 100 µM (inactive)		> 100 µM (inactive)	> 100 µM (inactive)	
O=C(NCCN1CCOCC1)c1cn2c(ccc3sc4ccccc4c(=O)c32)n1		11 µM (inactive)	5.22 µM (inactive)	12.3 µM (inactive)	10.3 µM (inactive)	13.1 µM (inactive)		5.35 µM (inactive)	9.73 µM (inactive)	22 µM (inactive)	> 100 µM (inactive)	34.6 µM (inactive)	22.9 µM (inactive)	12.3 µM (inactive)	6.56 µM (inactive)		10.1 µM (inactive)	8.02 µM (inactive)	87.5 µM (inactive)	4.02 µM (inactive)
COC(=O)[C@@]1(C)CCC[C@]2(C(=O)O)C3Cc4occc4[C@H](C)[C@@H]3CCC21 (some centres undefined)	62.5 µM (inactive)	33.6 µM (inactive)	35.2 µM (inactive)	34 µM (inactive)		28.9 µM (inactive)		> 100 µM (inactive)	59.7 µM (inactive)	51.1 µM (inactive)	49.3 µM (inactive)		44.6 µM (inactive)	> 100 µM (inactive)	29 µM (inactive)	56.1 µM (inactive)	30.2 µM (inactive)	41.1 µM (inactive)	71.1 µM (inactive)	33.8 µM (inactive)
O=Cc1ccc2[nH]c(=O)oc2c1	> 100 µM (inactive)	> 100 µM (inactive)	> 100 µM (inactive)	> 100 µM (inactive)	> 100 µM (inactive)	> 100 µM (inactive)		> 100 µM (inactive)	39.7 µM (inactive)	94.8 µM (inactive)	> 100 µM (inactive)	> 100 µM (inactive)	> 100 µM (inactive)	> 100 µM (inactive)	> 100 µM (inactive)	> 100 µM (inactive)		99.5 µM (inactive)	> 100 µM (inactive)	> 100 µM (inactive)
Nc1nc(S)nc2snnc12	> 100 µM (inactive)	> 100 µM (inactive)	> 100 µM (inactive)	> 100 µM (inactive)	> 100 µM (inactive)	> 100 µM (inactive)		> 100 µM (inactive)	> 100 µM (inactive)	> 100 µM (inactive)	> 100 µM (inactive)	> 100 µM (inactive)	> 100 µM (inactive)	> 100 µM (inactive)	> 100 µM (inactive)	> 100 µM (inactive)	> 100 µM (inactive)	> 100 µM (inactive)	> 100 µM (inactive)	> 100 µM (inactive)
FC1(F)[Se]C2C3CCC(C3)C2C1(F)F (centres undefined)	> 100 µM (inactive)	35.2 µM (inactive)	56.2 µM (inactive)	> 100 µM (inactive)	> 100 µM (inactive)	> 100 µM (inactive)	> 100 µM (inactive)	> 100 µM (inactive)	> 100 µM (inactive)	> 100 µM (inactive)	> 100 µM (inactive)		> 100 µM (inactive)	> 100 µM (inactive)		> 100 µM (inactive)	> 100 µM (inactive)		> 100 µM (inactive)	> 100 µM (inactive)
Cn1c2c(c3c(=O)[nH]ncc31)Cc1ccccc1-2		4.33 µM (inactive)	3.64 µM (inactive)	22.5 µM (inactive)	6.65 µM (inactive)	7.62 µM (inactive)	21.3 µM (inactive)	14 µM (inactive)	3.79 µM (inactive)	15.5 µM (inactive)	16.3 µM (inactive)	10.8 µM (inactive)	6.79 µM (inactive)	12 µM (inactive)	9.64 µM (inactive)	6.49 µM (inactive)		14.7 µM (inactive)	18.2 µM (inactive)	3.04 µM (inactive)
CN(C)/C=N/c1ccc2c3c(cccc13)-c1ccccc1-2	18.6 µM (inactive)	14.4 µM (inactive)	15.4 µM (inactive)	16 µM (inactive)	14.5 µM (inactive)	12.6 µM (inactive)	15.7 µM (inactive)	14.3 µM (inactive)	10.3 µM (inactive)	7.83 µM (inactive)		17.3 µM (inactive)	15.5 µM (inactive)	12.5 µM (inactive)	10 µM (inactive)	13.7 µM (inactive)		5.58 µM (inactive)	14.4 µM (inactive)	
CC(C)(C)/N=C1\C(=O)C2(C)CCC1C2(C)C (centres undefined)	14.3 µM (inactive)	> 100 µM (inactive)	> 100 µM (inactive)	> 100 µM (inactive)	> 100 µM (inactive)		> 100 µM (inactive)	> 100 µM (inactive)	> 100 µM (inactive)	> 100 µM (inactive)	> 100 µM (inactive)	> 100 µM (inactive)	> 100 µM (inactive)	> 100 µM (inactive)	> 100 µM (inactive)	> 100 µM (inactive)	> 100 µM (inactive)		> 100 µM (inactive)	> 100 µM (inactive)
CCCCCCCCCCCCC(O)C1CCC(C(O)CCCCCCC(O)CCCCCCCC2=CC(C)OC2=O)O1 (centres undefined)	> 10 µM (inactive)	3.86 µM (inactive)	0.127 µM (active)	42.3 µM (inactive)	13 µM (inactive)	25.8 µM (inactive)	34.4 µM (inactive)	28.6 µM (inactive)	0.407 µM (active)	22.9 µM (inactive)	32.4 µM (inactive)	2.17 µM (inactive)	35.5 µM (inactive)	6.53 µM (inactive)			30.9 µM (inactive)	3.92 µM (inactive)	34.4 µM (inactive)	12.9 µM (inactive)
COC(=O)CNC(=O)Nc1cc(N2C(=O)ON3C2C(C)(C)N(O)C3(C)C)ccc1C (centres undefined)	> 100 µM (inactive)	55 µM (inactive)	> 100 µM (inactive)	> 100 µM (inactive)	> 100 µM (inactive)	> 100 µM (inactive)	> 100 µM (inactive)	> 100 µM (inactive)	> 100 µM (inactive)	> 100 µM (inactive)	> 100 µM (inactive)	> 100 µM (inactive)	> 100 µM (inactive)	> 100 µM (inactive)	> 100 µM (inactive)	> 100 µM (inactive)	> 100 µM (inactive)		> 100 µM (inactive)	> 100 µM (inactive)
CC1=C(N2CC2)C(=O)c2ccccc2C1=O	0.811 µM (active)	0.618 µM (active)	1.37 µM (inactive)	1.04 µM (active)	1.22 µM (inactive)	0.312 µM (active)	0.918 µM (active)	13.8 µM (inactive)	0.117 µM (active)	0.422 µM (active)	1.13 µM (inactive)	0.327 µM (active)	1.47 µM (inactive)	0.359 µM (active)	0.394 µM (active)	2.52 µM (inactive)		2.52 µM (inactive)	1.21 µM (inactive)	0.454 µM (active)
COc1ccc(C(C)NNC(=O)c2cc[n+]([BH2-]C#N)cc2)c(OC)c1 (centres undefined)	> 100 µM (inactive)	> 100 µM (inactive)			> 100 µM (inactive)	> 100 µM (inactive)	69.5 µM (inactive)	> 100 µM (inactive)	> 100 µM (inactive)	> 100 µM (inactive)	> 100 µM (inactive)	> 100 µM (inactive)	> 100 µM (inactive)	> 100 µM (inactive)			> 100 µM (inactive)	> 100 µM (inactive)	> 100 µM (inactive)	> 100 µM (inactive)
C/C(=N\N=C(/S)SCc1ccccc1)c1ccccn1	0.463 µM (active)	0.514 µM (active)	< 0.01 µM (active)	< 0.01 µM (active)		< 0.0269 µM (active)	< 0.01 µM (active)	< 0.01 µM (active)	< 0.01 µM (active)	1.28 µM (inactive)	0.266 µM (active)	< 0.01 µM (active)	< 0.01 µM (active)	0.184 µM (active)	< 0.01 µM (active)	< 0.01 µM (active)	0.0476 µM (active)	< 0.01 µM (active)	2.97 µM (inactive)	0.26 µM (active)
COC(=O)C(Cc1cccc(O)c1)NC(=O)C(CC(=O)OCc1ccccc1)NC(=O)OCc1ccccc1 (centres undefined) (Cbz-Asp(OBn)-[mTyr]-OMe; configuration not given here)	65.5 µM (inactive)		> 100 µM (inactive)	> 100 µM (inactive)		> 100 µM (inactive)		> 100 µM (inactive)	46.1 µM (inactive)	> 100 µM (inactive)	> 100 µM (inactive)	> 100 µM (inactive)	30.6 µM (inactive)		88.5 µM (inactive)		> 100 µM (inactive)	35.4 µM (inactive)	65.8 µM (inactive)	15.4 µM (inactive)

Source: ChEMBL document CHEMBL1201862, “PubChem BioAssay data set” (2004)
